System: adult participants hospitalized for severe COVID-19
Experiment: Phase 1b severe COVID-19 study: adverse events and deaths
Format: in vivo, human
Description: Safety evaluation was based on adverse events (Aes) including serious adverse events (SAEs) and adverse events of special interest (AESIs) (i.e., pregnancy, symptomatic overdose with IMP. Alanine aminotransferase [ALT] increase, and anemia), and treatment-emergent adverse events (TEAEs) leading to treatment discontinuation.
The primary focus of AE reporting was on treatment emergent adverse events (TEAEs). Treatment emergent adverse events were Aes that were not present at baseline or represented the exacerbation of a pre-existing condition during the on-treatment period (treatment-emergent period), defined as the time from the first administration of the IMP up to and including the day of last dose of study drug plus 5 days.
All adverse events were coded to a “preferred term (PT)”, “high-level term (HLT)”, “high-level group term (HLGT)”, and associated primary SOC using Medical Dictionary for Regulatory Activities (MedDRA) version 23.1.
The number and cumulative incidence rate of deaths [%] during the on-study period were computed by treatment group: number of deaths divided by the number of participants. Kaplan-Meier plot for time to death was presented by treatment group.

[1] = 600 mg (N = 47), Safety population

Question: Which “intensity of the majority of the TEAEs” value (600 mg) does the source give for `CN1C(=O)[C@@H](NC(=O)c2nnc(Cc3ccccc3)[nH]2)COc2cccnc21` [RIPK1 Inhibitor, (S)-5-benzyl-N-(5-methyl-4-oxo-2,3,4,5-tetrahydropyrido[3,2-b][1,4]oxazepin-3-yl)-4H-1,2,4-triazole-3-carboxamide] here?
Answer: The value was “grade 2”.

Question: What about the “participants with PCSAs in hemoglobin and hematocrits considered as TEAEs of anemia” value (600 mg) of the same compound?
Answer: Its value is 1 participants.

Question: And the “Participants with TEAE(s) (SAE): Any class” value [1]?
Answer: The value was 6 (12.8) n (%).

Question: And the “Participants with TEAE(s) (SAE): PT Bacterial infection” value [1]?
Answer: The value was 1 (2.1) n (%).

Question: And the “Participants with TEAE(s) (SAE): PT Cardiac arrest” value [1]?
Answer: The value was 0 n (%).

Question: And the “Participants with TEAE(s) (SAE): PT Condition aggravated” value [1]?
Answer: Its value is 2 (4.3) n (%).

Question: And the “Participants with TEAE(s) (SAE): PT Peripheral artery thrombosis” value [1]?
Answer: Its value is 1 (2.1) n (%).

Question: And the “Participants with TEAE(s) (SAE): PT Pneumonia bacterial” value [1]?
Answer: The value was 1 (2.1) n (%).

Question: And the “Participants with TEAE(s) (SAE): PT Pseudomonas infection” value [1]?
Answer: The value was 1 (2.1) n (%).

Question: What about the “Participants with TEAE(s) (SAE): PT Pulmonary embolism” value [1] of the same compound?
Answer: Its value is 1 (2.1) n (%).

Question: What about the “Participants with TEAE(s) (SAE): PT Respiratory failure” value [1] of the same compound?
Answer: Its value is 0 n (%).

Question: What about the “Participants with TEAE(s) (SAE): SOC CARDIAC DISORDERS” value [1] of the same compound?
Answer: The value was 0 n (%).

Question: And the “Participants with TEAE(s) (SAE): SOC GENERAL DISORDERS AND ADMINISTRATION SITE CONDITIONS” value [1]?
Answer: The value was 2 (4.3) n (%).

Question: What about the “Participants with TEAE(s) (SAE): SOC INFECTIONS AND INFESTATIONS” value [1] of the same compound?
Answer: The value was 3 (6.4) n (%).

Question: And the “Participants with TEAE(s) (SAE): SOC RESPIRATORY, THORACIC AND M[…]” value [1]?
Answer: The value was 1 (2.1) n (%).

Question: What about the “Participants with TEAE(s) (SAE): SOC VASCULAR DISORDERS” value [1] of the same compound?
Answer: The value was 1 (2.1) n (%).

Question: What about the “TEAE, Any class: number of participants” value [1] of the same compound?
Answer: Its value is 24.

Question: And the “TEAE, Any class: percentage of participants” value [1]?
Answer: Its value is “(51.1) %”.

Question: And the “TEAE, PT Alanine aminotransferase increased: number of participants” value [1]?
Answer: The value was 6.

Question: And the “TEAE, PT Alanine aminotransferase increased: percentage of participants” value [1]?
Answer: Its value is “(12.8) %”.

Question: And the “TEAE, PT Anaemia: number of participants” value [1]?
Answer: Its value is 1.

Question: What about the “TEAE, PT Anaemia: percentage of participants” value [1] of the same compound?
Answer: The value was “(2.1) %”.

Question: What about the “TEAE, PT Anxiety disorder: number of participants” value [1] of the same compound?
Answer: The value was 1.

Question: What about the “TEAE, PT Anxiety disorder: percentage of participants” value [1] of the same compound?
Answer: Its value is “(2.1) %”.

Question: What about the “TEAE, PT Arterial injury: number of participants” value [1] of the same compound?
Answer: The value was 1.

Question: And the “TEAE, PT Arterial injury: percentage of participants” value [1]?
Answer: Its value is “(2.1) %”.

Question: What about the “TEAE, PT Aspartate aminotransferase increased: number of participants” value [1] of the same compound?
Answer: Its value is 1.

Question: What about the “TEAE, PT Aspartate aminotransferase increased: percentage of participants” value [1] of the same compound?
Answer: Its value is “(2.1) %”.

Question: And the “TEAE, PT Back pain: number of participants” value [1]?
Answer: The value was 1.

Question: What about the “TEAE, PT Back pain: percentage of participants” value [1] of the same compound?
Answer: Its value is “(2.1) %”.

Question: What about the “TEAE, PT Bacterial infection: number of participants” value [1] of the same compound?
Answer: Its value is 1.

Question: What about the “TEAE, PT Bacterial infection: percentage of participants” value [1] of the same compound?
Answer: The value was “(2.1) %”.

Question: What about the “TEAE, PT Blood pressure increased: number of participants” value [1] of the same compound?
Answer: The value was 0.

Question: And the “TEAE, PT Cardiac arrest: number of participants” value [1]?
Answer: Its value is 0.

Question: And the “TEAE, PT Cerebral ischaemia: number of participants” value [1]?
Answer: Its value is 0.

Question: What about the “TEAE, PT Chest discomfort: number of participants” value [1] of the same compound?
Answer: Its value is 1.

Question: And the “TEAE, PT Chest discomfort: percentage of participants” value [1]?
Answer: The value was “(2.1) %”.

Question: And the “TEAE, PT Cholelithiasis: number of participants” value [1]?
Answer: Its value is 0.

Question: What about the “TEAE, PT Constipation: number of participants” value [1] of the same compound?
Answer: Its value is 1.

Question: What about the “TEAE, PT Constipation: percentage of participants” value [1] of the same compound?
Answer: Its value is “(2.1) %”.

Question: What about the “TEAE, PT Dehydration: number of participants” value [1] of the same compound?
Answer: Its value is 1.

Question: And the “TEAE, PT Dehydration: percentage of participants” value [1]?
Answer: Its value is “(2.1) %”.

Question: What about the “TEAE, PT Diarrhoea: number of participants” value [1] of the same compound?
Answer: The value was 4.

Question: What about the “TEAE, PT Diarrhoea: percentage of participants” value [1] of the same compound?
Answer: Its value is “(8.5) %”.

Question: And the “TEAE, PT Drug hypersensitivity: number of participants” value [1]?
Answer: The value was 1.

Question: What about the “TEAE, PT Drug hypersensitivity: percentage of participants” value [1] of the same compound?
Answer: Its value is “(2.1) %”.

Question: And the “TEAE, PT Dyspepsia: number of participants” value [1]?
Answer: The value was 0.

Question: What about the “TEAE, PT Dyspnoea: number of participants” value [1] of the same compound?
Answer: The value was 1.

Question: And the “TEAE, PT Dyspnoea: percentage of participants” value [1]?
Answer: Its value is “(2.1) %”.

Question: What about the “TEAE, PT Emphysema: number of participants” value [1] of the same compound?
Answer: The value was 1.

Question: What about the “TEAE, PT Emphysema: percentage of participants” value [1] of the same compound?
Answer: The value was “(2.1) %”.

Question: What about the “TEAE, PT Encephalopathy: number of participants” value [1] of the same compound?
Answer: The value was 0.

Question: And the “TEAE, PT Fatigue: number of participants” value [1]?
Answer: The value was 1.

Question: And the “TEAE, PT Fatigue: percentage of participants” value [1]?
Answer: The value was “(2.1) %”.

Question: And the “TEAE, PT Flatulence: number of participants” value [1]?
Answer: The value was 1.

Question: What about the “TEAE, PT Flatulence: percentage of participants” value [1] of the same compound?
Answer: The value was “(2.1) %”.

Question: And the “TEAE, PT Furuncle: number of participants” value [1]?
Answer: Its value is 0.

Question: What about the “TEAE, PT Gastritis: number of participants” value [1] of the same compound?
Answer: Its value is 0.

Question: What about the “TEAE, PT Gastrooesophageal sphincter insufficiency: number of participants” value [1] of the same compound?
Answer: Its value is 0.

Question: What about the “TEAE, PT Hyperglycaemia: number of participants” value [1] of the same compound?
Answer: The value was 1.

Question: And the “TEAE, PT Hyperglycaemia: percentage of participants” value [1]?
Answer: Its value is “(2.1) %”.

Question: What about the “TEAE, PT Hypertension: number of participants” value [1] of the same compound?
Answer: Its value is 1.

Question: What about the “TEAE, PT Hypertension: percentage of participants” value [1] of the same compound?
Answer: Its value is “(2.1) %”.

Question: And the “TEAE, PT Hypoglycaemia: number of participants” value [1]?
Answer: Its value is 1.

Question: And the “TEAE, PT Hypoglycaemia: percentage of participants” value [1]?
Answer: Its value is “(2.1) %”.

Question: What about the “TEAE, PT Hypophosphataemia: number of participants” value [1] of the same compound?
Answer: Its value is 1.

Question: What about the “TEAE, PT Hypophosphataemia: percentage of participants” value [1] of the same compound?
Answer: Its value is “(2.1) %”.

Question: And the “TEAE, PT Metabolic acidosis: number of participants” value [1]?
Answer: The value was 0.

Question: And the “TEAE, PT Nausea: number of participants” value [1]?
Answer: Its value is 1.

Question: What about the “TEAE, PT Nausea: percentage of participants” value [1] of the same compound?
Answer: Its value is “(2.1) %”.

Question: What about the “TEAE, PT Non-cardiac chest pain: number of participants” value [1] of the same compound?
Answer: Its value is 1.

Question: And the “TEAE, PT Non-cardiac chest pain: percentage of participants” value [1]?
Answer: Its value is “(2.1) %”.

Question: What about the “TEAE, PT Noninfective bronchitis: number of participants” value [1] of the same compound?
Answer: The value was 0.

Question: What about the “TEAE, PT Oesophageal ulcer: number of participants” value [1] of the same compound?
Answer: Its value is 0.

Question: What about the “TEAE, PT Oesophagitis: number of participants” value [1] of the same compound?
Answer: Its value is 0.

Question: And the “TEAE, PT Oropharyngeal pain: number of participants” value [1]?
Answer: Its value is 1.

Question: And the “TEAE, PT Oropharyngeal pain: percentage of participants” value [1]?
Answer: Its value is “(2.1) %”.

Question: And the “TEAE, PT Ovarian cyst: number of participants” value [1]?
Answer: The value was 0.

Question: And the “TEAE, PT Peripheral artery thrombosis: number of participants” value [1]?
Answer: The value was 1.

Question: What about the “TEAE, PT Peripheral artery thrombosis: percentage of participants” value [1] of the same compound?
Answer: Its value is “(2.1) %”.

Question: What about the “TEAE, PT Pleural effusion: number of participants” value [1] of the same compound?
Answer: Its value is 0.

Question: What about the “TEAE, PT Pneumomediastinum: number of participants” value [1] of the same compound?
Answer: Its value is 0.

Question: What about the “TEAE, PT Pneumonia bacterial: number of participants” value [1] of the same compound?
Answer: Its value is 1.

Question: And the “TEAE, PT Pneumonia bacterial: percentage of participants” value [1]?
Answer: Its value is “(2.1) %”.

Question: And the “TEAE, PT Pneumonia: number of participants” value [1]?
Answer: The value was 0.

Question: What about the “TEAE, PT Pneumoperitoneum: number of participants” value [1] of the same compound?
Answer: The value was 0.

Question: What about the “TEAE, PT Pneumothorax: number of participants” value [1] of the same compound?
Answer: The value was 0.

Question: And the “TEAE, PT Procedural pneumothorax: number of participants” value [1]?
Answer: The value was 0.

Question: And the “TEAE, PT Pseudomembranous colitis: number of participants” value [1]?
Answer: The value was 1.

Question: And the “TEAE, PT Pseudomembranous colitis: percentage of participants” value [1]?
Answer: The value was “(2.1) %”.

Question: What about the “TEAE, PT Pseudomonas infection: number of participants” value [1] of the same compound?
Answer: Its value is 1.

Question: And the “TEAE, PT Pseudomonas infection: percentage of participants” value [1]?
Answer: The value was “(2.1) %”.

Question: What about the “TEAE, PT Psychomotor hyperactivity: number of participants” value [1] of the same compound?
Answer: Its value is 0.

Question: And the “TEAE, PT Pulmonary embolism: number of participants” value [1]?
Answer: Its value is 1.

— patent US20230233576A1, “ECLITASERTIB FOR USE IN TREATING CONDITIONS INVOLVING SYSTEMIC HYPERINFLAMMATORY RESPONSE” (priority 2020, published 2023)
